Data reported in PMC10819888, “Benzimidazole-Based Derivatives as Apoptotic Antiproliferative Agents: Design, Synthesis, Docking, and Mechanistic Studies” (Molecules, 2024).

Experiments:
Type in all cases: cell-based, human
CCRF-CEM = test: NCI-60 five-dose assay; details: CCRF-CEM (Leukemia), 48 h
MOLT-4 = test: NCI-60 five-dose assay; details: MOLT-4 (Leukemia), 48 h
EKVX = test: NCI-60 five-dose assay; details: EKVX (Non-Small Cell Lung Cancer), 48 h
HOP-62 = test: NCI-60 five-dose assay; details: HOP-62 (Non-Small Cell Lung Cancer), 48 h
NCI-H226 = test: NCI-60 five-dose assay; details: NCI-H226 (Non-Small Cell Lung Cancer), 48 h
NCI-H23 = test: NCI-60 five-dose assay; details: NCI-H23 (Non-Small Cell Lung Cancer), 48 h
NCI-H460 = test: NCI-60 five-dose assay; details: NCI-H460 (Non-Small Cell Lung Cancer), 48 h
COLO 205 = test: NCI-60 five-dose assay; details: COLO 205 (Colon Cancer), 48 h
HCT-15 = test: NCI-60 five-dose assay; details: HCT-15 (Colon Cancer), 48 h
KM12 = test: NCI-60 five-dose assay; details: KM12 (Colon Cancer), 48 h
SW-620 = test: NCI-60 five-dose assay; details: SW-620 (Colon Cancer), 48 h
SF-295 = test: NCI-60 five-dose assay; details: SF-295 (CNS Cancer), 48 h
SF-539 = test: NCI-60 five-dose assay; details: SF-539 (CNS Cancer), 48 h
MALME-3M = test: NCI-60 five-dose assay; details: MALME-3M (Melanoma), 48 h
M14 = test: NCI-60 five-dose assay; details: M14 (Melanoma), 48 h
MDA-MB-435 = test: NCI-60 five-dose assay; details: MDA-MB-435 (Melanoma), 48 h
OVCAR-4 = test: NCI-60 five-dose assay; details: OVCAR-4 (Ovarian Cancer), 48 h
UO-31 = test: NCI-60 five-dose assay; details: UO-31 (Renal Cancer), 48 h
DU-145 = test: NCI-60 five-dose assay; details: DU-145 (Prostate Cancer), 48 h
MDA-MB-231 = test: NCI-60 five-dose assay; details: MDA-MB-231 (Breast Cancer), 48 h
MDA-MB-468 = test: NCI-60 five-dose assay; details: MDA-MB-468 (Breast Cancer), 48 h
Colon Cancer subpanel = test: NCI-60 five-dose assay, subpanel
CNS Cancer subpanel = test: NCI-60 five-dose assay, subpanel
Ovarian Cancer subpanel = test: NCI-60 five-dose assay, subpanel
Renal Cancer subpanel = test: NCI-60 five-dose assay, subpanel
[1] = Homo sapiens, read-out: GI50 Conc. per Cell Line
[2] = Homo sapiens, read-out: LC50 (the source's name)

`O=C(NN=Cc1ccc([N+](=O)[O-])cc1)c1ccc2[nH]c(-c3ccc(Cl)cc3)nc2c1` [Compound 4c, N′-(4-Nitrobenzylidene)-2-(4-chlorophenyl)-1H-benzimidazole-5-carbohydrazide] was tested, and the TGI (CCRF-CEM) was 17.70 µM, the GI50 (CCRF-CEM; [1]) was 0.591 µM and the CC50 (CCRF-CEM; [2]) was greater than 100 µM. It also gave a GI50 (MOLT-4; [1]) of 0.421 µM, a CC50 (MOLT-4; [2]) greater than 100 µM and a TGI (MOLT-4) of 3.85 µM. It also gave a TGI (EKVX) of 21.20 µM, a GI50 (EKVX; [1]) of 3.19 µM and a CC50 (EKVX; [2]) greater than 100 µM. The TGI (HOP-62) was 30.80 µM, the GI50 (HOP-62; [1]) was 6.42 µM and the CC50 (HOP-62; [2]) was greater than 100 µM. For the same molecule, the GI50 (NCI-H226; [1]) was 5.03 µM, the CC50 (NCI-H226; [2]) was greater than 100 µM and the TGI (NCI-H226) was 31.20 µM. For the same molecule, the GI50 (NCI-H23; [1]) was 1.85 µM, the CC50 (NCI-H23; [2]) was 67.6 µM and the TGI (NCI-H23) was 11.50 µM. It also gave a GI50 (NCI-H460; [1]) of 2.1 µM, a TGI (NCI-H460) of 4.49 µM and a TGI (COLO 205) of 3.76 µM. The GI50 (COLO 205; [1]) was 1.46 µM, the TGI (HCT-15) was 13.30 µM and the GI50 (HCT-15; [1]) was 2.6 µM. For the same molecule, the CC50 (HCT-15; [2]) was greater than 100 µM, the GI50 (KM12; [1]) was 3.43 µM and the CC50 (KM12; [2]) was 82.6 µM. It also gave a TGI (KM12) of 13.00 µM, a GI50 (SW-620; [1]) of 3.44 µM and a TGI (SW-620) of 10.80 µM. It also gave a GI50 (SF-295; [1]) of 3.4 µM, a CC50 (SF-295; [2]) of 43.8 µM and a TGI (SF-295) of 13.10 µM. The GI50 (SF-539; [1]) was 2.73 µM, the CC50 (SF-539; [2]) was 33.8 µM and the TGI (SF-539) was 10.10 µM. The GI50 (MALME-3M; [1]) was 1.48 µM, the TGI (MALME-3M) was 5.00 µM and the GI50 (M14; [1]) was 2.73 µM. It also gave a CC50 (M14; [2]) of 67.1 µM, a TGI (M14) of 9.13 µM and a GI50 (MDA-MB-435; [1]) of 3.57 µM. For the same molecule, the CC50 (MDA-MB-435; [2]) was 47.6 µM, the TGI (MDA-MB-435) was 12.20 µM and the GI50 (OVCAR-4; [1]) was 2.75 µM. The CC50 (OVCAR-4; [2]) was greater than 100 µM, the TGI (OVCAR-4) was 8.64 µM and the GI50 (UO-31; [1]) was 6.05 µM. For the same molecule, the CC50 (UO-31; [2]) was greater than 100 µM, the TGI (UO-31) was 38.30 µM and the TGI (DU-145) was 21.40 µM. For the same molecule, the GI50 (DU-145; [1]) was 3.99 µM, the CC50 (DU-145; [2]) was greater than 100 µM and the GI50 (MDA-MB-231; [1]) was 3.75 µM. The CC50 (MDA-MB-231; [2]) was 69.1 µM, the TGI (MDA-MB-231) was 13.90 µM and the GI50 (MDA-MB-468; [1]) was 1.97 µM. For the same molecule, the TGI (MDA-MB-468) was 4.79 µM, the “GI50 Selectivity Ratio (MID a/MID b)” value (Colon Cancer subpanel; Colon Cancer subpanel) was 1.30 and the GI50 (Colon Cancer subpanel; Homo sapiens, Colon Cancer, average sensitivity of all subpanel cell lines, read-out: GI50 Subpanel MID b) was 2.53 µM. The “GI50 Selectivity Ratio (MID a/MID b)” value (CNS Cancer subpanel; CNS Cancer subpanel) was 0.81, the GI50 (CNS Cancer subpanel; Homo sapiens, CNS Cancer, average sensitivity of all subpanel cell lines, read-out: GI50 Subpanel MID b) was 4.05 µM and the GI50 (Ovarian Cancer subpanel; Homo sapiens, Ovarian Cancer, average sensitivity of all subpanel cell lines, read-out: GI50 Subpanel MID b) was 5.77 µM. For the same molecule, the “GI50 Selectivity Ratio (MID a/MID b)” value (Ovarian Cancer subpanel; Ovarian Cancer subpanel) was 0.57, the GI50 (Renal Cancer subpanel; Homo sapiens, Renal Cancer, average sensitivity of all subpanel cell lines, read-out: GI50 Subpanel MID b) was 4.3 µM and the “GI50 Selectivity Ratio (MID a/MID b)” value (Renal Cancer subpanel; Renal Cancer subpanel) was 0.76.
